Key:
[1] = target: T1, AMPKα2 (recombinant AMPKα2β1γ1) (Homo sapiens, UniProt P54619+P54646+Q9Y478); experiment: radiometric in vitro kinase assay with SAMS peptide and […]-ATP; assay type: biochemical
T1 construct: gene PRKAA2; recombinant AMPKα2β1γ1 heterotrimer (#P48-10H, SignalChem); with AMPKβ1, AMPKγ1

[2] = target: T2, AMPKα1 (recombinant AMPKα1β1γ1) (Homo sapiens, UniProt Q13131); experiment: radiometric in vitro kinase assay with SAMS peptide and […]-ATP; Lineweaver-Burk; IC50 […]; assay type: biochemical
T2 construct: gene PRKAA1; recombinant AMPKα1β1γ1 heterotrimer (#P47-10H, SignalChem); with AMPKβ1, AMPKγ1
T2 sequence (Q13131 whole entry): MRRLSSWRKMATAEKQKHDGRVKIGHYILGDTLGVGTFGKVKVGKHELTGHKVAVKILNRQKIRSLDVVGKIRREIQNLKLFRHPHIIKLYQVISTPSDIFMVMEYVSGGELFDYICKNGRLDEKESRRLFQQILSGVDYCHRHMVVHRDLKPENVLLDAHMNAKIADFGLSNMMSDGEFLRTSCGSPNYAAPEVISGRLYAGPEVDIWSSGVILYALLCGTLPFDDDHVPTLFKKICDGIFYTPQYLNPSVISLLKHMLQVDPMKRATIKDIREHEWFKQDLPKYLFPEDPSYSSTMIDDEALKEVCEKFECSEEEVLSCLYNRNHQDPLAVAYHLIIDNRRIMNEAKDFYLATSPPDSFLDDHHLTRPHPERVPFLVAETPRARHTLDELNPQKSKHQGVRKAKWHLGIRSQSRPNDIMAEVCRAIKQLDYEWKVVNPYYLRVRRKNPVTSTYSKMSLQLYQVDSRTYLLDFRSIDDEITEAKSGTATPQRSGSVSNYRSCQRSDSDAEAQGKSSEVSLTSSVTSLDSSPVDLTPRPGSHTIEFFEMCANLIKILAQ
T2 sequence (Q9Y478 2-270 partner): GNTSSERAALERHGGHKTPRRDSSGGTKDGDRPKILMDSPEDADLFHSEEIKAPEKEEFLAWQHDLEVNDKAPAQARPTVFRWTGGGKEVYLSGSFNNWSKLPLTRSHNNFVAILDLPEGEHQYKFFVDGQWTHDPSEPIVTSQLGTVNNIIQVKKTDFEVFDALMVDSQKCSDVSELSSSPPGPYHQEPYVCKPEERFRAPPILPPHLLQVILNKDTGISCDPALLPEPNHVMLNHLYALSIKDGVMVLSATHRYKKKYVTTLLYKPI
T2 sequence (P54619 whole entry partner): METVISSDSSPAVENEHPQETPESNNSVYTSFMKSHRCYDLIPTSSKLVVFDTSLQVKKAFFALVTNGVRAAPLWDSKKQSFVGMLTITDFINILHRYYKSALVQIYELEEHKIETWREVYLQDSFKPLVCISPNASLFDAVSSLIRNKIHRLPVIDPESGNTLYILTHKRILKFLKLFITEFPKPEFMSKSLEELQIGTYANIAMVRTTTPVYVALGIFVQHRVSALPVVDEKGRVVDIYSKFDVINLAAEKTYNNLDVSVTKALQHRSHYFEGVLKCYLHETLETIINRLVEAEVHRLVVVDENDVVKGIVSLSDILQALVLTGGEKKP

T1 sequence (P54646 whole entry): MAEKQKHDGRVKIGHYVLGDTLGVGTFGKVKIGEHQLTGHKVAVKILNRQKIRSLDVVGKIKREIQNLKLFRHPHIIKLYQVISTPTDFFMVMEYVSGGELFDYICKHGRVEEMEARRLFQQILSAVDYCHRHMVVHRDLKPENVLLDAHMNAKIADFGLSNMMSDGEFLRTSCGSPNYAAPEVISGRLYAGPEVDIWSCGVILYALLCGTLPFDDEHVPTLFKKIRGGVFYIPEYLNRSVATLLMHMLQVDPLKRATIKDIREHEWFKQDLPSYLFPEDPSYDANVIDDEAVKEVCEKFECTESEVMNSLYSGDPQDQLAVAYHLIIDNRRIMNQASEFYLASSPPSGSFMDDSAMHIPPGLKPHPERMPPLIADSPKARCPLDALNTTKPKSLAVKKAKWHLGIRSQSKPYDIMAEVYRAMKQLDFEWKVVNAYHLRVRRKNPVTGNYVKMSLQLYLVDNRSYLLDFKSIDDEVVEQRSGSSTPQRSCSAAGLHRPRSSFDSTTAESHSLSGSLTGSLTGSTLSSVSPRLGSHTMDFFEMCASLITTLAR
T1 sequence (Q9Y478 2-270 partner): as the sequence (Q9Y478 2-270 partner) above
T1 sequence (P54619 whole entry partner): as the sequence (P54619 whole entry partner) above

SMILES: CN[C@@H]1C(O)[C@H]2O[C@@](C)([C@@H]1OC)n1c3ccccc3c3c4c(c5c6ccccc6n2c5c31)C(=O)NC4 (some centres unmarked) [5-OH-S, 5′-hydroxy-staurosporine]
- IC50 [1]: 0.583 µM
- Ki [2]: 0.347 µM
